Test results: US20240382509A1, “Cannabinoids C- and O-glycosides possessing anti-proliferative and anti-metastatic properties and process for preparation thereof” (Council of Scientific and Industrial Research, priority 2021, published 2024)

How the values were obtained:
[1] = system: MIAPaCa-2 cells; assay: MTT cell viability assay, MIAPaCa-2; assay type: cell-based, human; settings: Homo sapiens, MIA PaCa-2, 48 h, read-out: Cytotoxicity (IC50) MIAPaCa-2, MTT, 48 h
Procedure: (§1) Cell viability assay: The cell viability was determined by the standard MTT assay method. Briefly, Panc-1, HCT-116, A549, PC3, MIAPaca-2, HT-29, MDA-MB-231, MCF7 cells, and fR2cells were seeded in 96 well tissue culture plates (Nunc) at a density of 4×10^3 cells per well and treated with varying concentrations of the test compounds in triplicates. DMSO was taken as a vehicle, and its final concentration was maintained at 0.2% in the culture medium. Doxorubicin was employed as a positive control. After 44 h of incubation, MTT dye solution was added into the medium, and cells were incubated for another 4 h at 37° C. in 5% CO2. The amount of colored formazan derivatives formed was measured by taking optical density (OD) using a microplate reader (TECAN, Infinite M200 Pro) at 570 nm, and the percentage of cell viability was calculated. The IC50 values were calculated using GraphPad Prism software (Version 5.0).

[2] = system: human colorectal adenocarcinoma cell line (HT-29); assay: MTT cell viability assay, HT-29; assay type: cell-based; settings: Homo sapiens, HT-29, 48 h, read-out: Cytotoxicity (IC50) HT-29, MTT, 48 h; human colorectal adenocarcinoma cell line
Procedure: as §1

[3] = system: HCT-116 cells; assay: Annexin V/PI staining for apoptosis (FACS); assay type: cell-based; settings: HCT-116, 750 nM 5FU+3 μM 2a
Procedure: 1×10^6 HCT-116 cells were seeded in 60 mm Petri dish and treated with vehicle, 3 μM 2a, 750 nM 5FU and 750 nM 5FU+3 μM 2a for indicated time points. After treatment termination, the cells were carefully trypsinized and the palette obtained were resuspended in 600 μL of binding buffer (10 mM HEPES [N-2-hydroxyethylpiperazine-N-2-ethanesulfonicacid], 140 mM NaCl, and 2.5 mM CaCl2, pH 7.4). Subsequently, the cells were stained with 6 μL of AnnexinV-FITC and 10 μL of propidium iodide for 20 min at room temperature in the dark. The samples were immediately analyzed by FACS (BD Accuri C6), and the scatter plot was obtained by BD Accuri C6 software.
The DNA damaging effect of compound 2a in combination with subtoxic doses of 5FU was further analyzed by Annexin/PI staining to check the activation of programmed cell death. […] Cumulatively, compound 2a elevated the DNA damaging effect and eventually leads to programmed cell death in combination with subtoxic doses of 5FU (FIG. 9b).

[4] = system: MDA-MB-231 cells; assay: In-situ gelatin degradation assay, MDA-MB-231; assay type: cell-based, human; settings: MDA-MB-231, 1.5 μM to 5 μM
Procedure: (§2) Matrix gelatin degradation assay. In-situ gelatin degradation assay is performed to detect the formation of migratory structures (invadopodia & filopodia). Briefly, glass coverslips were coated with gelatin tagged with FITC, and the coated coverslips were dipped into 70% ethanol and immersed into a 6 well plate filled with RPMI and the coverslips were kept in a CO2 incubator for 1-2 h for preconditioning. Later on, both MIAPaCa-2 and MDA-MB-231 cells were seeded onto the coverslips and kept overnight for attachment. Treatment of the compound 2a (0.5, 1.5, 3 & 5 μM) was given on the next day and continued for 36 h. Upon termination, the coverslips were washed with ice-cold PBS, and then it was fixed in 4% paraformaldehyde for 15 min and then washed with PBS. Finally, the coverslips were mounted using mounting media consist of glycerol, and the edges were sealed with nail polish. After drying, the slides were observed under a fluorescence microscope to assess a degraded area's presence. The fluorescent images were captured, and the images were further processed in Image J software (Version 1.50i) to quantify the degraded area in each field.
(§3) Now to study its anti-migratory and anti-metastatic role in another highly metastatic cancer cells of breast origin (MDA-MB 231) the IC50 value was determined by performing MTT assay (FIG. 6a).

[5] = system: MDA-MB-231 cells; assay: Matrigel invasion assay, MDA-MB-231; assay type: cell-based, human; settings: MDA-MB231, 0.5 μM to 5 μM
Procedure: Matrigel invasion assay: MIAPaCa-2 and MDA-MB-231 cells (1×10^6) were seeded onto matrigel coated inserts and treated with compound 2a (0.5, 1.5, 3 & 5 μM) for 36 h in 5% CO2 incubator at 37° C. The upper chamber is filled with serum-free media, and the lower half consists of 10% FBS supplemented media, thus creating a gradient of chemoattractant that facilitates the migration of cells. Upon termination, the inserts were washed with PBS, and the non-migratory cells were removed from the upper chamber by using a cotton plug. Further, the cells were fixed with methanol and stained later with 0.2% crystal violet. After drying, the inserts were observed under an inverted microscope at 20× magnification, and images were taken.
as §3

[6] = system: MIAPaCa-2 cells; assay: In-situ gelatin degradation assay, MIAPaCa-2; assay type: cell-based, human; settings: MIAPaCa-2, from 0.5 μM onwards, 36 h
Procedure: as §2
Now this particular derivative was further analysed for its ability to inhibit the molecular signatures of EMT. […]

[7] = system: Panc-1 cells; assay: MTT cell viability assay, Panc-1; assay type: cell-based; settings: Homo sapiens, PANC-1, 48 h, read-out: Cytotoxicity (IC50) Panc-1, MTT, 48 h; pancreatic cancer cells
Procedure: as §1

[8] = system: MIAPaCa-2 cells; assay: Cell scatter assay; assay type: cell-based, human; settings: MIAPaCa-2, 1, 2, 3 μM, 36 h, compared to vehicle and parent molecule
Procedure: Cell scatter assay MIAPaCa-2 cells were seeded onto a 12 well plate at a seeding density of 500 cells/well and kept for 4-5 days, and there was the formation of scatter colonies since the cell line itself is a metastatic cell line. Accordingly, they were treated with 1 μM, 2 μM & 3 μM of compound 2, 2a, 2b, 3, 3a, 4, 4a & 4b for 36 h, and upon termination, they were washed with PBS and observed under an inverted microscope at 20× magnification (FIG. 3).

CCCCCc1cc(O[C@@H]2OC(CO)[C@@H](O)C(O)C2O)c2c(c1)OC(C)(C)[C@@H]1CCC(C)=C[C@@H]21 (stereo partly drawn) [Compound 2a, Δ^9-tetrahydrocannabinol-1-O-β-D-glucopyranoside] was tested. Which IC50 [1] did it give?
The IC50 was 1.42 µM.

What about the IC50 [2] of the same compound?
The IC50 was 3.16 µM.

What about the “apoptosis (Annexin+/PI+)” value [3] of the same compound?
The value was “induction of late phase of apoptosis”.

And the gelatin degradation [4]?
Its gelatin degradation is “significant decrease of gelatin degradation”.

What about the “migration in Matrigel coated invasion chamber” value [5] of the same compound?
Its value is “periodical loss of migration”.

And the gelatin degraded area [6]?
The gelatin degraded area was “significant loss of gelatin degraded area”.

And the IC50 [7]?
The IC50 was 3 µM.

And the cell scattering [8]?
Its cell scattering is “typical clumping of scatter cells”.
